Values after ≈ are worked out from the molar mass of the structure shown. Like-named read-outs stand apart in the source and are kept apart here. Square brackets hold non-standard residues; d marks the D form. Peptide text beside a SMILES is read from it. Dab = NCC[C@H](N)C(=O)O
Experiments:
[1] = system: B. cinerea; test: In vitro antifungal activity (MIC) in SFM culture media, with or without added salts
[2] = system: F. graminearum
[3] = system: Coccidioides sp.; assay type: cell-based; conditions: Table 8
[4] = system: B. cinerea, F. graminearum, F. oxysporum and P. capsici; assay type: cell-based; conditions: in vitro, low cationic conditions; for antifungal activity relative to the wild-type GMA4C_AC control: against B. cinerea, F. graminearum, F. oxysporum and P. capsici
[5] = system: C. parapsilosis; test: MIC by CLSI M27/M38 methodology; assay type: cell-based, Candida parapsilosis; conditions: C. parapsilosis isolate ATCC 22019; Table 8
Description: (§1) Testing for antifungal activity used half-strength potato dextrose broth for peptides and RPMI for comparator antifungals fluconazole and voriconazole. CLSI M27 and M38 methodologies used for to measure MICs. Minimal Inhibitory Concentration (MIC) is the concentration of the compound, protein, or peptide at which there is no significant growth of the microorganism relative to the growth of the microorganism in growth medium lacking the compound, protein, or peptide.
(§2) […] The concentration range for peptides in potato dextrose broth was 0.06-2 mcg/ml, the concentration range for fluconazole was 0.125-64 mcg/ml, and the concentration range for voriconazole was 0.03-16 mcg/ml. MICs were determined at 24-72 hours.

[6] = system: Fusarium (F. oxysporum); test: MIC by CLSI M27/M38 methodology; assay type: cell-based; conditions: Table 8
Description: as §1, §2

[7] = system: Candida albicans; test: MIC by CLSI M27/M38 methodology; assay type: cell-based; conditions: Table 8
Description: as §1, §2

[8] = system: Aspergillus fumigatus; test: MIC by CLSI M27/M38 methodology; assay type: cell-based; conditions: Table 8
Description: as §1, §2

[9] = system: Fusarium (F. solani); test: MIC by CLSI M27/M38 methodology; assay type: cell-based; conditions: Fusarium isolate F4 (F. solani); Table 8
Description: as §1, §2

[10] = system: Candida auris; test: MIC by CLSI M27/M38 methodology; assay type: cell-based; conditions: Table 8
Description: as §1, §2

[11] = Coccidioides sp. isolate Cocci1
[12] = Coccidioides sp. isolate Cocci2
[13] = Coccidioides sp. isolate DI17-143
[14] = Fusarium isolate F1 (F. oxysporum)
[15] = Fusarium isolate F2 (F. oxysporum)
[16] = Candida albicans isolate ATCC 90028
[17] = Candida albicans isolate SC5314
[18] = Aspergillus fumigatus isolate AF293
[19] = Aspergillus fumigatus isolate DI15-106
[20] = Aspergillus fumigatus isolate DI15-116

## C[C@@H](O)[C@H](NC(=O)[C@H](CS)NC(=O)[C@H](Cc1ccccc1)NC(=O)[C@H](CS)NC(=O)[C@H](CCCNC(=N)N)NC(=O)[C@H](CCCNC(=N)N)NC(=O)[C@H](CCCNC(=N)N)NC(=O)[C@H](Cc1ccccc1)NC(=O)CNC(=O)[C@H](CCCNC(=N)N)NC(=O)[C@H](CS)NC(=O)[C@H](CCCNC(=N)N)NC(=O)CNC(=O)CN)C(=O)N[C@H](C(=O)N[C@@H](Cc1c[nH]cn1)C(=O)N[C@@H](CS)C(N)=O)[C@@H](C)O [GMA4C_AC] (H-GGRCRGFRRRCFCTTHC-NH2; N-terminus assumed)
[1]; SFM + 2 mM CaCl2, Table 10
  SFM + 2 mM CaCl2 MIC: >6 (a few μM
[2]
  F. graminearum MIC: 3 µM
  MIC Fusarium graminearum: 3 µM (≈ 6.05 µg/mL)
  MIC Values against F. graminearum: 6 µM (≈ 12.1 µg/mL)

## CC[C@H](C)[C@H](NC(=O)[C@H](CCCNC(=N)N)NC(=O)[C@@H](NC(=O)[C@H](CS)NC(=O)[C@H](Cc1ccccc1)NC(=O)[C@H](CS)NC(=O)[C@H](CCCNC(=N)N)NC(=O)[C@H](CCCNC(=N)N)NC(=O)[C@H](CCCNC(=N)N)NC(=O)[C@H](Cc1ccccc1)NC(=O)CNC(=O)[C@H](CCCNC(=N)N)NC(=O)[C@H](CS)NC(=O)[C@H](CCCNC(=N)N)NC(=O)CNC(=O)CN)[C@@H](C)O)C(=O)N[C@@H](CS)C(N)=O [GMA4C_V2A] (H-GGRCRGFRRRCFCTRIC-NH2; N-terminus assumed)
[3]; [11]
  MIC, 100%: 8 mg/L (≈ 3.91 µM)
[3]; [12]
  MIC, 100%: 16 mg/L (≈ 7.82 µM)
[3]; [13]
  MIC, 100%: 16 mg/L (≈ 7.82 µM)
[4]; against B. cinerea and F. graminearum
  reduction in antifungal activity relative to the wild-type GMA4C_AC control: two-fold reduction
[5]
  MIC, 100%: 8 mg/L (≈ 3.91 µM)
[6]; [14]
  MIC, 100%: 8 mg/L (≈ 3.91 µM)
[6]; [15]
  MIC, 100%: 16 mg/L (≈ 7.82 µM)
[7]; [16]
  MIC, 100%: 16 mg/L (≈ 7.82 µM)
[7]; Candida albicans isolate CA3
  MIC, 100%: 16 mg/L (≈ 7.82 µM)
[7]; [17]
  MIC, 100%: 16 mg/L (≈ 7.82 µM)
[8]; [18]
  MIC, 100%: 32 mg/L (≈ 15.6 µM)
[8]; [19]
  MIC, 100%: >32 mg/L
[8]; [20]
  MIC, 100%: >32 mg/L
[9]
  MIC, 100%: 8 mg/L (≈ 3.91 µM)
[10]; Candida auris isolate DI17-46
  MIC, 100%: 16 mg/L (≈ 7.82 µM)
[10]; Candida auris isolate DI17-47
  MIC, 100%: 16 mg/L (≈ 7.82 µM)
[10]; Candida auris isolate DI17-48
  MIC, 100%: 16 mg/L (≈ 7.82 µM)

## N=C(N)NCCC[C@H](NC(=O)CNC(=O)[C@@H](N)Cc1ccccc1)C(=O)N[C@@H](CS)C(=O)N[C@@H](CCCNC(=N)N)C(=O)NCC(=O)N[C@@H](Cc1ccccc1)C(=O)N[C@@H](CCCNC(=N)N)C(=O)N[C@@H](CCCNC(=N)N)C(=O)N[C@@H](CCCNC(=N)N)C(=O)N[C@@H](CS)C(=O)N[C@@H](Cc1ccccc1)C(=O)N[C@@H](CS)C(=O)N[C@@H](Cc1c[nH]c2ccccc12)C(=O)N[C@@H](CCCNC(=N)N)C(=O)N[C@@H](Cc1c[nH]c2ccccc12)C(=O)N[C@@H](CS)C(N)=O [GMA4C_V4A] (H-FGRCRGFRRRCFCWRWC-NH2; N-terminus assumed)
[3]; [11]
  MIC, 100%: 4 mg/L (≈ 1.74 µM)
[3]; [12]
  MIC, 100%: 16 mg/L (≈ 6.97 µM)
[3]; [13]
  MIC, 100%: 16 mg/L (≈ 6.97 µM)
[1]; B. cinerea, in presence of 2 mM CaCl2, peptide 6 μM
  fungal growth inhibition at 6 μM: inhibit fungal growth
[1]; B. cinerea, in presence of 100 mM NaCl or 100 mM KCl
  potency of antifungal activity relative to GMA4C_AC: 2 fold
[4]
  antifungal activity relative to the wild-type GMA4C_AC control: equivalent to the wild-type GMA4C_AC control
[5]
  MIC, 100%: 8 mg/L (≈ 3.49 µM)
[6]; [14]
  MIC, 100%: 8 mg/L (≈ 3.49 µM)
[6]; [15]
  MIC, 100%: 8 mg/L (≈ 3.49 µM)
[7]; [16]
  MIC, 100%: 8 mg/L (≈ 3.49 µM)
[7]; Candida albicans isolate CA3
  MIC, 100%: 8 mg/L (≈ 3.49 µM)
[7]; [17]
  MIC, 100%: 8 mg/L (≈ 3.49 µM)
[8]; [18]
  MIC, 100%: 16 mg/L (≈ 6.97 µM)
[8]; [19]
  MIC, 100%: 16 mg/L (≈ 6.97 µM)
[8]; [20]
  MIC, 100%: 32 mg/L (≈ 13.9 µM)
[9]
  MIC, 100%: 8 mg/L (≈ 3.49 µM)
[10]; Candida auris isolate DI17-46
  MIC, 100%: 8 mg/L (≈ 3.49 µM)
[10]; Candida auris isolate DI17-47
  MIC, 100%: 8 mg/L (≈ 3.49 µM)
[10]; Candida auris isolate DI17-48
  MIC, 100%: 8 mg/L (≈ 3.49 µM)

## NCC[C@H](NC(=O)CNC(=O)[C@@H](N)Cc1ccccc1)C(=O)N[C@@H](CS)C(=O)N[C@@H](CCN)C(=O)NCC(=O)N[C@@H](Cc1ccccc1)C(=O)N[C@@H](CCN)C(=O)N[C@@H](CCN)C(=O)N[C@@H](CCN)C(=O)N[C@@H](CS)C(=O)N[C@@H](Cc1ccccc1)C(=O)N[C@@H](CS)C(=O)N[C@@H](Cc1c[nH]c2ccccc12)C(=O)N[C@@H](CCN)C(=O)N[C@@H](Cc1c[nH]c2ccccc12)C(=O)N[C@@H](CS)C(N)=O [GMA4C_V5A, FG(Dab)C(Dab)GF(Dab)(Dab)(Dab)CFCW(Dab)WC-NH2] (H-FG[Dab]C[Dab]GF[Dab][Dab][Dab]CFCW[Dab]WC-NH2; N-terminus assumed)
[3]; [11]
  MIC, 100%: 2 mg/L (≈ 1.02 µM)
[3]; [12]
  MIC, 100%: 16 mg/L (≈ 8.17 µM)
[3]; [13]
  MIC, 100%: 16 mg/L (≈ 8.17 µM)
[4]
  antifungal activity relative to the wild-type GMA4C_AC control: equivalent to the wild-type GMA4C_AC control
[5]
  MIC, 100%: 8 mg/L (≈ 4.08 µM)
[6]; [14]
  MIC, 100%: 8 mg/L (≈ 4.08 µM)
[6]; [15]
  MIC, 100%: 16 mg/L (≈ 8.17 µM)
[7]; [16]
  MIC, 100%: 16 mg/L (≈ 8.17 µM)
[7]; Candida albicans isolate CA3
  MIC, 100%: 8 mg/L (≈ 4.08 µM)
[7]; [17]
  MIC, 100%: 16 mg/L (≈ 8.17 µM)
[8]; [18]
  MIC, 100%: 32 mg/L (≈ 16.3 µM)
[8]; [19]
  MIC, 100%: >32 mg/L
[8]; [20]
  MIC, 100%: >32 mg/L
[9]
  MIC, 100%: 8 mg/L (≈ 4.08 µM)
[10]; Candida auris isolate DI17-46
  MIC, 100%: 16 mg/L (≈ 8.17 µM)
[10]; Candida auris isolate DI17-47
  MIC, 100%: 16 mg/L (≈ 8.17 µM)
[10]; Candida auris isolate DI17-48
  MIC, 100%: 16 mg/L (≈ 8.17 µM)

From patent US20240383955A1, “MODIFIED ANTIMICROBIAL PEPTIDES” (priority 2021, published 2024)
